Where “and” joins values, the source holds several entries; their conditions need not be identical. Equal entries are not always repeated. Values belong to the molecule of their own block, whether it stands above or below them. Ends that are not written are not given here.
Tests used:
anti-CD2 antibody B-E2 [1] = assay: FACS competition assay of peptides for binding of anti-CD2 antibody B-E2 to T cells; details: 1 mM peptide, 1×10^6 MNC, 15 min room temperature; FIG. 3
Description: Peptides having affinity for the CD2 monoclonal antibody B-E2 were isolated by phage display biopanning. Various peptides were tested as competitors for binding of T cells to the anti-CD2 antibody B-E2. A competition assay was performed using 1 mM of each peptide. The peptides were at 2×10^7 fold molar excess relative to the competitor CD2 antigen and at 6×10^6 fold molar excess relative to anti-CD2 antibody. Competition was measured using a FACS competition assay (see FIG. 3).
For the competition assay, 0.5 ml of a 1 mM solution of various peptides was added to 1×10^6 peripheral blood mononuclear cells (MNC) followed by the addition of 100 μl of 0.02 μg/ml of CD2 antibody (B-E2) and incubated for 15 min at room temperature. Cells were washed once in lysing reagent (155 mM ammonium chloride, 10 mM potassium bicarbonate, and 0.1 mM EDTA) and twice in 2 ml of PAH (DPBS, 1% human serum albumin, 0.02% NaN3). 1 μl of goat F(ab′)2 fragment anti-mouse IgG (heavy+light)-phycoerythrin conjugated (GAM-PE; Immunotech; Miami Fla.) was added to each sample and incubated for 10 min at room temperature. Cells were washed twice in 2 ml of PAH. The final cell pellet was resuspended in 0.25 ml of 0.5% paraformaldehyde. The samples were analyzed by flow cytometry.

CD2 T cells = assay: T cell selection using CD2-PR34 conjugate and capture by direct binding of CD34 antibody to Dynabeads; type: cell-based, human; details: for % Purity / % Yield: release agent PR34+ 2.5 mg
Description: The CD2 antibody B-E2 was conjugated to PR34™ peptide essentially as described in Example IV. MNCs were incubated essentially as described in Example IV using CD2-PR34 conjugate. The cells were then incubated with the CD34 antibody 9069 coated on M-450 Dynabeads (Dynal). The CD34 antibody coated beads were prepared by absorbing various amounts of anti-CD34 antibody on the bead surface. The beads were prebound with 0, 1, 5, 20, or 50 μg of antibody per 108 beads. As a control, an aliquot of cells was incubated with streptavidin coated Dynabeads.

Camma cells = assay: Positive selection of Camma cells using Pan-O-5-PR34 conjugate and anti-CD34-coated Dynabeads; type: cell-based; details: PR34 peptide 5 mg/ml, 30 min room temperature; FIG. 5, N=1
Description: To prepare antibody-coated beads, Dynabeads (Dynal) were washed with Dulbecco's phosphate buffered saline (D-PBS). Washed beads were coated with 50 μg anti-CD34 monoclonal antibody per 10^8 beads for 24 hours at 4° C. The beads were washed twice with Isolex buffer and incubated with 1% albumin in the Isolex buffer for 24 hours at 4° C.
To synthesize the Pan-O-5-PR34 conjugate, the Pan-O-5 monoclonal antibody was incubated with N-(ε-maleimidocaproyloxy)succinimide ester for 30 min at room temperature to generate an antibody-linker complex. The antibody-linker complex was washed twice with D-PBS using an Amicon spin column (30 KD; Millipore Corp.; Bedford Mass.). The Pan-O-5-antibody-linker complex was incubated with PR34™ peptide for 30 min at room temperature. The Pan-O-5-linker-PR34 antibody complex was washed twice with D-PBS using an Amicon spin column. The concentration of the conjugate was determined by absorbance at 280 nm.
Cells (18×10^6) were incubated with Pan-O-5-linker-PR34 antibody (5 μg/ml) for 15 min. The cell-antibody complex was washed twice with Isolex buffer and incubated with anti-CD34-coated Dynabeads (5 beads per cell) for 30 min at room temperature. The Dynabeads were isolated with a magnet, and unbound cells were removed. The bead-cell fraction was incubated with PR34™ peptide (5 mg/ml) for 30 min at room temperature. […]

CD8+ cells = assay: Positive selection of CD8+ cells from a mononuclear cell preparation; type: cell-based, human; details: condition 2: biotinylated CD8 antibody capture; incubation with free PR34+ peptide
Description: To test the ability of the CD8-PR34+ conjugate to isolate CD8+ cells from a population, mononuclear cells (MNCs), which contain CD8+ cells, were prepared. Mononuclear cells were collected from human donors. Mononuclear cells were collected from a G-CSF mobilized human donor using a CS-3000™ (Baxter) following the protocol of the manufacturer. The starting population of MNCs was 19.42% CD3+/8+. For each rosetting reaction, a quantity of MNCs containing 2×10^6 CD8+ cells was used. Biotinylated CD8 antibody (MT-415) was biotinylated essentially as described in Example I. The MNCs were incubated under three conditions. In condition 1, MNCs were incubated with streptavidin beads alone. In condition 2, MNCs were incubated with biotinylated CD8 antibody, followed by streptavidin beads. In condition 3, MNCs were incubated with CD8-PR34+ conjugate, followed by biotinylated 9C5 and streptavidin beads. After incubation with streptavidin beads, the free cells were removed, and the cells attached to streptavidin beads were incubated with free PR34+™ peptide. The released cells were counted, and the number of CD8+ cells was evaluated using flow cytometry. The CD8+ cells were quantitated using a combination of CD3 and […]. CD3 is a pan T cell marker, and CD3+ populations can be further subdivided into mutually exclusive CD4+ and CD8 positive populations. […]

CD2+ T cells = assay: Positive selection of CD2+ T cells using CD2-9069N, b-9069 and streptavidin beads; type: cell-based, human; details: release reagent 9069N 2.5 mg; for % T-cells released: 30 min./RT
Excerpt: To test the ability of a PR34+ peptide-conjugate to isolate a different cell type, the PR34+TM peptide was coupled to a CD2 antibody (B-E2; IgG2b isotype; Diaclone; Besancon, France) essentially as described in Example T. The PR34+TM peptide, also designated […], conjugated to the CD2 antibody was designated CD2-[…]. The biotinylated 9C5 antibody, also known as the 9069 antibody, was designated b-9069. Either mobilized or non-mobilized MNC preparations (see Example III) were used, with similar results. Cells were incubated with 1 μg or 5 μg of CD2-[…] conjugate for 15 min at room temperature (see Table 3). The cells were then incubated with 1 μg or 10 μg of biotinylated 9C5 antibody (b-9069) and streptavidin beads. Bound cells were subsequently incubated with either buffer or 2.5 mg of free PR34+TM peptide ([…]). Incubation conditions were essentially as described in Example II. The released cells were then quantitated and the purity determined. Purity and cell counts were assessed using an anti-CD3 antibody and the True Count flow cytometty quantitation method (Becton Dickenson; San Jose Calif.).

SUP-T1 cells = assay: Flow cytometry of SUP-T1 cells sensitized with CD8-PR34+ conjugate, biotinylated 9C5 and streptavidin-PE, with or without free peptide; type: cell-based, human; details: SUP-T1 cells stained with conjugate, biotinylated 9C5, streptavidin-PE; free peptide 5.0 mg/ml, 15 min; FIG. 2
Description: For flow cytometry experiments, SUP-T1 cells were used. SUP-T1 is a T-lymphoma-derived tumor cell line known to express typical T cell surface markers. The SUP-T1 cells were prepared for flow cytometry and sequentially sensitized with the CD8 antibody-PR34+ peptide (CD8-PR34+) conjugate, biotinylated 9C5, and phycoerythrin-labeled (PE-labeled) streptavidin. The SUP-T1 cells were incubated with either streptavidin-PE; sequentially with the CD8-PR34+ conjugate, biotinylated 9C5, followed by streptavidin-PE; or sequentially with CD8-PR34+ conjugate, biotinylated 9C5, streptavidin-PE, followed by a 15 min incubation with free PR34+™ peptide. The SUP-T1 cells were then analyzed by flow cytometry. All incubations were performed in a mixture of Dulbecco's phosphate buffered saline (GibcoBRL), 0.05% azide, 1.0% human serum albumin (PAH). All incubations were for 15 min at room temperature and each was followed by a wash with 1.0 ml PAH. The stained cells were resuspended in 0.25 ml PAH for flow cytometry. SUP-T1 cells (1×10^6) were stained with 1 μg of either the CD8-9069N or the CD34-biotin. The peptide was used at 5.0 mg/ml.

anti-CD2 antibody B-E2 [2] = assay: FACS release assay of cells bound to anti-CD2 antibody using peptides; type: binding; details: 1 mM or 5 mM peptide, 30 min room temperature, in some cases 1 mM DTT; FIG. 4
Description: Several of the peptides were further tested for release activity. Briefly, the FACS release assay was performed by incubating 1×10^6 MNC with 100 μl of 0.02 μg/ml of CD2 antibody for 15 min at room temperature. Cells were washed once with 2 ml of lysing reagent and twice with 2 ml of PAH solution. 0.5 ml of a 1 mM or 5 mM peptide stock was added to the cell pellet and incubated at room temperature for 30 min. Cells were washed twice in 2 ml of PAH. 1 μl of GAM-PE was added to each sample and incubated for 10 min at room temperature. Cells were washed twice in 2 ml of PAH. The final cell pellet was resuspended in 0.25 ml of 0.5% paraformaldehyde. The samples were analyzed by flow cytometry.
In the release assay, either 1 mM or 5 mM peptide (1 mM peptide except where indicated to be 5 mM in FIG. 4). In some cases, the release assay was performed in the presence of 1 mM dithiothreitol (DTT). The assay was performed with two different batches of donor cells (second batch of donor cells designated with “*” in FIG. 4).

[3] = molecular target: biotinylated 9C5 antibody (anti-human CD34 monoclonal antibody); assay: cell-based or functional assay
[4] = SA: streptavidin coated Dynabead control

Molecule: ACKQFACKQF
competition for binding of the anti-CD2 antibody B-E2 to cells (anti-CD2 antibody B-E2 [1]): compete for binding

Molecule: KCHPNMSLKECH
competition for binding of the anti-CD2 antibody B-E2 to cells (anti-CD2 antibody B-E2 [1]): compete for binding

Molecule: Ac-QQGWFPKD [PR34+™ peptide, peptide capable of displacing the anti-CD34 antibody 9C5 (9069); used free as release agent]
% Purity (CD2 T cells; 1 μg antibody per 10^8 beads): 92.4%
% Yield (CD2 T cells; 1 μg antibody per 10^8 beads): 55.9%
% Purity (CD2 T cells; 5 μg antibody per 10^8 beads): 91.3%
% Yield (CD2 T cells; 5 μg antibody per 10^8 beads): 68.9%
% Purity (CD2 T cells; 20 μg antibody per 10^8 beads): 91.8%
% Yield (CD2 T cells; 20 μg antibody per 10^8 beads): 47.4%
% Purity (CD2 T cells; 50 μg antibody per 10^8 beads): 91.4%
% Yield (CD2 T cells; 50 μg antibody per 10^8 beads): 57.5%
% Purity (CD2 T cells; [4]): 94.5%
% Yield (CD2 T cells; [4]): 81.5%
purity of the cells released by free peptide (CD2 T cells; summary, antibody-coated beads): greater than 90%
yield of CD2 cells (CD2 T cells; summary, antibody-coated beads incubated with free PR34+ peptide): ≥ 50%
cells released (Camma cells): Greater than 75%
% Yield (CD8+ cells): less than 3%
% Purity (CD3+) (CD2+ T cells; CD2-9069N 1 μg, b-9069 1 μg): 89%
% T-cells released (CD2+ T cells; CD2-9069N 1 μg, b-9069 1 μg): 71%
% Purity (CD3+) (CD2+ T cells; CD2-9069N 1 μg, b-9069 10 μg): 87% and 74%
% T-cells released (CD2+ T cells; CD2-9069N 1 μg, b-9069 10 μg): 87% and 65%
% Purity (CD3+) (CD2+ T cells; CD2-9069N 5 μg, b-9069 1 μg): 88% and 81%
% T-cells released (CD2+ T cells; CD2-9069N 5 μg, b-9069 1 μg): 61% and 56%
% Purity (CD3+) (CD2+ T cells; CD2-9069N 5 μg, b-9069 10 μg): 70%
% T-cells released (CD2+ T cells; CD2-9069N 5 μg, b-9069 10 μg): 50%
fluorescent signal after addition of free peptide (SUP-T1 cells): eliminated the fluorescent signal

Molecule: ACKQFDFCNDH
competition for binding of the anti-CD2 antibody B-E2 to cells (anti-CD2 antibody B-E2 [1]): compete for binding

Molecule: ACKRPP
competition for binding of the anti-CD2 antibody B-E2 to cells (anti-CD2 antibody B-E2 [1]): compete for binding

Molecule: ACKQFDFCNDHWSKSQH
competition for binding of the anti-CD2 antibody B-E2 to cells (anti-CD2 antibody B-E2 [1]): compete for binding

Molecule: ACKQF
competition for binding of the anti-CD2 antibody B-E2 to cells (anti-CD2 antibody B-E2 [1]): compete for binding

Molecule: RCRRPATTPACR
competition for binding of the anti-CD2 antibody B-E2 to cells (anti-CD2 antibody B-E2 [1]): compete for binding
release activity (release of T cells bound to anti-CD2 antibody) (anti-CD2 antibody B-E2 [2]): highest release activity

Molecule: ASKQF
competition for binding of the anti-CD2 antibody B-E2 to cells (anti-CD2 antibody B-E2 [1]): compete for binding

Molecule: ACKQFNNDVTCN
competition for binding of the anti-CD2 antibody B-E2 to cells (anti-CD2 antibody B-E2 [1]): compete for binding

Molecule: ACKQFDFCNDHWSK
competition for binding of the anti-CD2 antibody B-E2 to cells (anti-CD2 antibody B-E2 [1]): compete for binding

Molecule: ACKQFNNDVTCNKRH
competition for binding of the anti-CD2 antibody B-E2 to cells (anti-CD2 antibody B-E2 [1]): compete for binding

Molecule: ACKQFN
competition for binding of the anti-CD2 antibody B-E2 to cells (anti-CD2 antibody B-E2 [1]): compete for binding

Molecule: ACKQFDFC
competition for binding of the anti-CD2 antibody B-E2 to cells (anti-CD2 antibody B-E2 [1]): compete for binding

Molecule: ACKQFNNDVTCNAAEGDD
competition for binding of the anti-CD2 antibody B-E2 to cells (anti-CD2 antibody B-E2 [1]): compete for binding

Molecule: ACKRPPVSLTCH
competition for binding of the anti-CD2 antibody B-E2 to cells (anti-CD2 antibody B-E2 [1]): compete for binding

Molecule: ACKQLHSVSGCR
competition for binding of the anti-CD2 antibody B-E2 to cells (anti-CD2 antibody B-E2 [1]): compete for binding

Molecule: ACKQFNNDV
competition for binding of the anti-CD2 antibody B-E2 to cells (anti-CD2 antibody B-E2 [1]): compete for binding

Molecule: RCRRPATTPACRACKQF
competition for binding of the anti-CD2 antibody B-E2 to cells (anti-CD2 antibody B-E2 [1]): compete for binding

% SUP-T1 Yield after release with free peptide (tube 2) [3]: 43%
% SUP-T1 Yield after release with free peptide (tube 3) [3]: 31%
% T-cells released by 9069N 2.5 mg (CD2-9069N 1 µg, b-9069 1 µg) [3]: 71%
% T-cells released by 9069N 2.5 mg (CD2-9069N 1 µg, b-9069 10 µg) [3]: 87% and 65%
% T-cells released by 9069N 2.5 mg (CD2-9069N 5 µg, b-9069 1 µg) [3]: 61% and 56%
% T-cells released by 9069N 2.5 mg (CD2-9069N 5 µg, b-9069 10 µg) [3]: 50%
% Yield after release with PR34+ 2.5 mg (streptavidin coated Dynabead control) [3]: 81.5%
% Yield of CD8+ cells after release with free peptide (condition 3) [3]: 16%
Molecule: Ac-QQGWFPKD [free PR34+ peptide Ac-QQGWFPKD (SEQ ID NO:2)]

Source: US20030119070A1, “Reagents for cell selection and methods of use” (Nexell Therapeutics, Inc., priority 2000, published 2003)
